# How the values were obtained:
# [1] = LC-MS/MS quantitation of TAM and its metabolites in archival FFPE breast tumor tissue of TAM-treated patients; assay type: in vivo, human; conditions: for Mean concentration in FFPE tissue, tumor recurrent patients: breast tumor recurrence patients (n = 16), mean 26 months on TAM; for Mean concentration in FFPE tissue, tumor recurrent patients / Mean concentration in FFPE tissue, tumor non-recurrent patients: 20 mg/day TAM for at least 6 months, mean ± SEM, Z-isomers quantitated; for Mean concentration in FFPE tissue, tumor non-recurrent patients: patients without tumor recurrence (n = 8), mean 22 months on TAM
# Method: This study was approved by the Conjoint Health Research Ethics Board. FFPE tissue blocks were acquired from the archives of the pathology department at Foothills Medical Centre (Calgary, AB, Canada). Patients who had estrogen-receptor positive breast cancers diagnosed from 1990 to 2010 and treated with standard doses of TAM (20 mg/day of TAM for at least 6 months until time of biopsy with a treatment plan of 5 years on TAM) were selected for investigation. Patients were divided into two groups categorized as breast tumor recurrence (n = 16) and non-recurrence (n = 8).
# Six 15 μm paraffin sections were removed from each FFPE tissue block and placed in a 1.5 mL eppendorf tube. The tissue sections were then deparaffinized by incubating with 1 mL of xylene for 10 min at room temperature. About 20 μL of I.S. was added followed by centrifugation at 20,000g for 5 min. Since xylene washes most of the TAM and metabolites from the paraffin sections, the supernatant was collected and transferred to a clean eppendorf tube. This procedure was repeated, and the two supernatants were combined followed by an SPE clean-up. Sample purification was performed via an SPE column vacuum manifold (Supelco, PA, USA). Samples were loaded onto the SPE columns previously conditioned with 3 mL of methanol and acetonitrile followed by a wash with 2 mL of 10 % methanol. The SPE cartridges were dried thereafter for 2 min, and the analytes were eluted with 2 mL of 5 % 50 mM ammonium acetate in methanol. Eluates were evaporated to dryness under a stream of nitrogen at 55 °C using a heating module obtained from Thermo Scientific/Pierce (Asheville, NC, USA). The dry extracts were then resuspended in 100 μL of acetonitrile/0.2 % formic acid (50:50).
# Liquid chromatography was performed on a 1200 SL series LC system consisting of a binary pump, well-plate autosampler and thermostated column compartment (Agilent Technologies). Separation of TAM and metabolites was carried out using a Zorbax SB-C18 column (150 × 2.1 mm i.d., 3.5 μm particle size, Agilent Technologies) with a column temperature of 40 °C. Mobile phase consisted of 0.2 % formic acid and acetonitrile (60:40) at a flow rate of 0.2 mL/min with a gradient of 40–90 % of acetonitrile over 5 min. About 30 μL of the sample extract was injected onto the LC system. The total run time was 12 min including column equilibration.
# MS detection of the analytes was accomplished by a 6410 triple-quadrupole mass spectrometer equipped with an electrospray ion source operating in the positive ion mode (Agilent Technologies). High purity nitrogen was used as the drying gas at a flow rate of 11 L/min with a gas temperature of 350 °C, and the nebulizer pressure was set at 35 psi. The capillary voltage was set at 4,000 V for each compound; however, the fragmentor voltages and the collision energies were operated at different settings for optimization of each analyte (Table 1). Quantitation was performed in multiple-reaction monitoring (MRM) mode, and the transitions of the precursors to product ions are summarized in Table 1. Data acquisition and analysis were performed using Mass Hunter Software v.B.02.01 (Agilent Technologies).
# [2] = design: method as in PMID 17529893; conditions: frozen tissues (~2 mg), breast cancer patients, single dose of 20 mg TAM, samples 5 h postdrug administration; cited from earlier work
SMILES,"Mean concentration in FFPE tissue, tumor recurrent patients [1] [ng/g]","Mean concentration in FFPE tissue, tumor non-recurrent patients [1]",Average concentration in frozen tissue [2] [ng/g],"Detection in FFPE tissue of tumor recurrent patients ([1]; some of the tumor recurrent patients (data not shown), possibly below the detection limit of the assay)",Range of concentration in frozen tissue [2] [ng/g]
"CC/C(=C(\c1ccccc1)c1ccc(OCCN(C)C)cc1)c1ccccc1 [TAM, Tamoxifen]",122 ± 25.2,147 ± 51.7 ng/g,118,,
"CC/C(=C(\c1ccc(O)cc1)c1ccc(OCCNC)cc1)c1ccccc1 [Endoxifen, N-desmethyl-4-hydroxy-tamoxifen]",19.2 ± 5.08,94.6 ± 41.0 ng/g,,not found,
"CC/C(=C(\c1ccccc1)c1ccc(OCCNC)cc1)c1ccccc1 [DMT, N-desmethyl-tamoxifen]",324 ± 103,"1,256 ± 282.8 ng/g",23.3,,0 to 643

# From article PMC3931943, “Extraction of tamoxifen and its metabolites from formalin-fixed, paraffin-embedded tissues: an innovative quantitation method using liquid chromatography and tandem mass spectrometry” (Cancer Chemotherapy and Pharmacology, 2014)
